These results are taken from patent publication US20240391954A1, “MC4R AGONIST PEPTIDES” (The Regents of the University of Michigan, priority 2021, published 2024).

Experiment [1] addresses T1, human MC3R (Homo sapiens, UniProt P41968).
T1 construct: expressed in transfected cells; host or cells: HEK-293 cells stably expressing the GScAMP22F split-luciferase cAMP sensor (parent reporter line from Promega); MC3R clone generated in-house, G418 selection
The experiment is described as follows: split-luciferase cAMP sensor assay, agonist mode (measurement window 1), hMC3R. Format: cell-based. To be noted: for Emax / EC50: agonist mode; for Emax: read-out: MC3R cAMP % max activation; for EC50: read-out: MC3R cAMP EC50. A digest of the protocol:
(§1)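 EC50 values come from a four-parameter variable-slope fit of luminescence in measurement window 1, capturing direct peptide effects on receptor-expressing cells with a cAMP22f luciferase sensor. Cells were preloaded with 4% D-luciferin, serum-free medium; 20 μM forskolin normalized for cell number and transducer efficiency.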

Experiment [2] deals with T2, human MC4R (Homo sapiens, UniProt P32245).
T2 construct: host or cells: HEK-293 cells stably expressing the GScAMP22F split-luciferase cAMP sensor and hMC4R, G418 selection
T2 sequence (P32245 whole entry): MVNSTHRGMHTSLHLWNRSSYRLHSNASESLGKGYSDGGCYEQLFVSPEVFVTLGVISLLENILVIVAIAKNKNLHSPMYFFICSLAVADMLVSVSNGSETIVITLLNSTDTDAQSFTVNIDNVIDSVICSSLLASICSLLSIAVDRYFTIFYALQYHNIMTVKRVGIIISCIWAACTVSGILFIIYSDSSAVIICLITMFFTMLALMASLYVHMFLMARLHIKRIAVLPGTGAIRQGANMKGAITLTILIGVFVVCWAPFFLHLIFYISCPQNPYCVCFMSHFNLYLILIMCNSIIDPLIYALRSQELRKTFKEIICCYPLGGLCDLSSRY
The experiment is described as follows: split-luciferase cAMP sensor assay, agonist mode (measurement window 1), hMC4R. Particulars: for Emax / EC50: agonist mode; for Emax: read-out: MC4R cAMP % max activation; for EC50: read-out: MC4R cAMP EC50. Format: cell-based. In a few lines:
as §1

In general, EC50 refers to the concentration needed to bring the measured effect to its halfway point.

Where two headings read alike, the source gives them in different places. Positions of bridges follow the written chain, without caps; N, C: chain ends. Non-standard residues stand in square brackets, D forms with d. Residues, ends and D or L forms follow the SMILES beside them. Phe(4-Br) = N[C@@H](Cc1ccc(Br)cc1)C(=O)O; dPhe(4-Br) = N[C@H](Cc1ccc(Br)cc1)C(=O)O; dPhe(4-I) = N[C@H](Cc1ccc(I)cc1)C(=O)O; d2Nal = N[C@H](Cc1ccc2ccccc2c1)C(=O)O; NMeR = CN[C@@H](CCCNC(=N)N)C(=O)O; Cit = NC(=O)NCCC[C@H](N)C(=O)O; Nle = CCCC[C@H](N)C(=O)O; Aib = CC(C)(N)C(=O)O

T1 sequence (P41968 whole entry): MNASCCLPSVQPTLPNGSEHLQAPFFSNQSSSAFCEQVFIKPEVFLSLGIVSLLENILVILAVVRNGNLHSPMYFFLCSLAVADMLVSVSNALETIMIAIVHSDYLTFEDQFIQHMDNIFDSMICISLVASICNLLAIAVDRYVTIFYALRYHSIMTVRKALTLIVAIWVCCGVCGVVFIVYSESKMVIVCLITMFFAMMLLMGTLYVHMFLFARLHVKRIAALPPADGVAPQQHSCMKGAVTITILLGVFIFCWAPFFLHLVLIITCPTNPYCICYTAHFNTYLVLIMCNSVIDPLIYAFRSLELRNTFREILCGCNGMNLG

Regarding `CC(=O)N[C@@H](CCCNC(=N)N)C(=O)N[C@H]1CSSC[C@@H](C(N)=O)NC(=O)[C@@H](Cc2c[nH]c3ccccc23)NC(=O)[C@H](CCCNC(=N)N)NC(=O)[C@@H](Cc2ccc(Br)cc2)NC(=O)[C@@H]2CCCN2C(=O)[C@@H](C)NC1=O` [CTX-1249, Arg-cyclo(Cys-D-Ala-Pro-D-Phe(4-Br)-Arg-D-Trp-Cys)] (Ac-RC[dA]P[dPhe(4-Br)]R[dW]C-NH2; disulfide 2-8), in experiment [1] (hMC3R stable cell line), the Emax is 1.9%. For the same compound, in experiment [2], the “MC4R selectivity vs MC1R” value worked out at 5.08 and the “MC4R selectivity vs MC3R” value worked out at 0.45. In experiment [2] (hMC4R stable cell line), the Emax was found to be 22% and the EC50 amounted to 14 nM.

`CC(=O)N[C@@H](CCCNC(=N)N)C(=O)N[C@H]1CSSC[C@@H](C(N)=O)NC(=O)[C@@H](Cc2c[nH]c3ccccc23)NC(=O)[C@H](CCCNC(=N)N)NC(=O)[C@H](Cc2ccc(Br)cc2)NC(=O)[C@H](CCCNC(=N)N)NC(=O)[C@@H](C)NC1=O` [CTX-1215, Arg-cyclo(Cys-D-Ala-Arg-Phe(4-Br)-Arg-D-Trp-Cys)] (Ac-RC[dA]R[Phe(4-Br)]R[dW]C-NH2; disulfide 2-8 (inferred)): in experiment [1] (hMC3R stable cell line), the Emax was 2.1% and the EC50 amounted to 27 nM. Moreover, in experiment [2], the “MC4R selectivity vs MC1R” value was determined as 0.07 and the “MC4R selectivity vs MC3R” value was 0.05. Moreover, the Emax in experiment [2] (hMC4R stable cell line) is 56%.

In the case of `CC(=O)N[C@@H](CCCNC(=N)N)C(=O)N[C@H]1CSSC[C@@H](C(N)=O)NC(=O)[C@@H](Cc2c[nH]c3ccccc23)NC(=O)[C@H](CCCNC(=N)N)NC(=O)[C@@H](Cc2ccc(Br)cc2)NC(=O)[C@H](CCCNC(=N)N)N(C)C(=O)[C@@H](C)NC1=O` [CTX-1248, Arg-cyclo(Cys-D-Ala-NMe-Arg-D-Phe(4-Br)-Arg-D-Trp-Cys)] (Ac-RC[dA][NMeR][dPhe(4-Br)]R[dW]C-NH2; disulfide 2-8 (inferred)), in experiment [1] (hMC3R stable cell line), the Emax was found to be 18% and the EC50 worked out at 2.8 nM. Also, in experiment [2], the “MC4R selectivity vs MC1R” value is 1.31 and the “MC4R selectivity vs MC3R” value is 1.36. For the same compound, in experiment [2] (hMC4R stable cell line), the Emax was determined as 47% and the EC50 came to 2 nM.

Consider `CC(=O)N[C@@H](CCCNC(=N)N)C(=O)N[C@H]1CSSC[C@@H](C(N)=O)NC(=O)[C@@H](Cc2ccc3ccccc3c2)NC(=O)[C@H](CCCNC(=N)N)NC(=O)[C@@H](Cc2ccc(Br)cc2)NC(=O)[C@H](CCCNC(=N)N)NC(=O)[C@@H](C)NC1=O` [CTX-1254, Arg-cyclo(Cys-D-Ala-Arg-D-Phe(4-Br)-Arg-D-Nal(2′)-Cys)] (Ac-RC[dA]R[dPhe(4-Br)]R[d2Nal]C-NH2; disulfide 2-8), for which, in experiment [1] (hMC3R stable cell line), the Emax was determined as 5.5%. In experiment [2], the “MC4R selectivity vs MC1R” value is listed as 0.26 and the “MC4R selectivity vs MC3R” value was 2.19. Besides, the Emax in experiment [2] (hMC4R stable cell line) stood at 22%.

`CC(=O)N[C@H]1CSSC[C@@H](C(N)=O)NC(=O)[C@H](Cc2c[nH]c3ccccc23)NC(=O)[C@H](CCCNC(=N)N)NC(=O)[C@@H](Cc2ccccc2)NC(=O)[C@H](Cc2c[nH]cn2)NC(=O)CNC1=O` [CTX-1206, cyclo(Cys-Gly-His-D-Phe-Arg-Trp-Cys)] (Ac-CGH[dF]RWC-NH2; disulfide 1-7 (inferred)): the values for the Emax in experiment [1] (% maximal activation) and in experiment [2] (% maximal activation) were 94% and 101%, respectively. Further, the results for the EC50 in experiment [1] (HEK-293 cells stably expressing hMC3R) and in experiment [2] (HEK-293 cells stably expressing hMC4R) were 12 nM and 0.52 nM, respectively. For the same compound, the “MC4R selectivity vs MC3R” value in experiment [1] (MC4R versus MC3R) came to 23.

With `CC(=O)N[C@@H](CCCNC(=N)N)C(=O)N[C@H]1CSSC[C@@H](C(N)=O)NC(=O)[C@H](Cc2c[nH]c3ccccc23)NC(=O)[C@H](CCCNC(=N)N)NC(=O)[C@@H](Cc2c[nH]c3ccccc23)NC(=O)[C@H](CCCNC(=N)N)NC(=O)[C@@H](C)NC1=O` [CTX-1274, Arg-cyclo(Cys-D-Ala-Arg-D-Trp-Arg-Trp-Cys)] (Ac-RC[dA]R[dW]RWC-NH2; disulfide 2-8), the Emax in experiment [1] (hMC3R stable cell line) was 5.4%. In experiment [2], the “MC4R selectivity vs MC1R” value turned out to be 0.19 and the “MC4R selectivity vs MC3R” value is 0.12. In experiment [2] (hMC4R stable cell line), the Emax amounted to 77% and the EC50 is 1400 nM.

With `COc1ccc(C[C@H]2NC(=O)[C@H](CCCNC(=N)N)NC(=O)CNC(=O)[C@@H](NC(C)=O)CSSC[C@@H](C(N)=O)NC(=O)[C@H](Cc3ccccc3)NC(=O)[C@H](CCCNC(=N)N)NC2=O)cc1` [CTX-1641, cyclo(Cys-Gly-Arg-D-Tyr(4-OMe)-Arg-Phe-Cys)] (Ac-CGR[dY](Me)RFC-NH2; disulfide 1-7), in experiment [1] (hMC3R stable cell line), the Emax came out at 22% and the EC50 was found to be 52 nM. In addition, in experiment [2], the “MC4R selectivity vs MC1R” value turned out to be 0.28 and the “MC4R selectivity vs MC3R” value was 1.18. For the same compound, the Emax in experiment [2] (hMC4R stable cell line) came out at 104%.

Turning to `CC(=O)N[C@@H](CCCNC(=N)N)C(=O)N[C@H]1CSSC[C@@H](C(N)=O)NC(=O)[C@@H](Cc2c[nH]c3ccccc23)NC(=O)[C@H](CCCNC(N)=O)NC(=O)[C@@H](Cc2ccccc2)NC(=O)[C@H](CCCNC(=N)N)NC(=O)C(C)(C)NC1=O` [CTX-1271, Arg-cyclo(Cys-Aib-Arg-D-Phe-Cit-D-Trp-Cys)] (Ac-RC[Aib]R[dF][Cit][dW]C-NH2; disulfide 2-8 (inferred)), the Emax in experiment [1] (hMC3R stable cell line) amounted to 16%. For the same compound, in experiment [2], the “MC4R selectivity vs MC1R” value is 2.9 and the “MC4R selectivity vs MC3R” value stood at 1.63. Besides, in experiment [2] (hMC4R stable cell line), the Emax was 95% and the EC50 worked out at 72 nM.

For `CCCC[C@H](NC(=O)[C@H](CCCNC(=N)N)NC(C)=O)C(=O)N[C@H]1CSSC[C@@H](C(N)=O)NC(=O)[C@@H](Cc2c[nH]c3ccccc23)NC(=O)[C@H](CCCNC(=N)N)NC(=O)[C@@H](Cc2ccc(OC)cc2)NC(=O)[C@H](CCCNC(=N)N)NC1=O` [CTX-1615, Arg-Nle-cyclo(Cys-Arg-D-Tyr(4-OMe)-Arg-D-Trp-Cys)] (Ac-R[Nle]CR[dY](Me)R[dW]C-NH2; disulfide 3-8), in experiment [1] (hMC3R stable cell line), the Emax is 55% and the EC50 was determined as 27 nM. Moreover, in experiment [2], the “MC4R selectivity vs MC1R” value was 0.26 and the “MC4R selectivity vs MC3R” value is 2.14. Also, in experiment [2] (hMC4R stable cell line), the Emax was found to be 68% and the EC50 was 13 nM.

Turning to `CC(=O)N[C@@H](CCCNC(=N)N)C(=O)N[C@H]1CSSC[C@@H](C(N)=O)NC(=O)[C@H](Cc2c[nH]c3ccccc23)NC(=O)[C@H](CCCNC(=N)N)NC(=O)[C@@H](Cc2ccc(Br)cc2)NC(=O)[C@H](Cc2c[nH]cn2)NC(=O)[C@@H](C)NC1=O` [CTX-2206, Arg-cyclo(Cys-D-Ala-His-D-Phe(4-Br)-Arg-Trp-Cys)], the Emax in experiment [1] (hMC3R stable cell line) worked out at 28%; in experiment [2] (hMC4R stable cell line) it was 98%. The EC50 in experiment [1] (hMC3R stable cell line) was 22 nM; in experiment [2] (hMC4R stable cell line, unit inferred), 3 nM. Also, in experiment [2], the “MC4R selectivity vs MC3R” value turned out to be 7.35.

Consider `CC(=O)N[C@@H](CCCNC(=N)N)C(=O)N[C@H]1CSSC[C@@H](C(N)=O)NC(=O)[C@@H](Cc2c[nH]c3ccccc23)NC(=O)[C@@H](CCCNC(=N)N)NC(=O)[C@@H](Cc2ccc(Br)cc2)NC(=O)[C@H](CCCNC(=N)N)NC(=O)[C@@H](C)NC1=O` [CTX-1252, Arg-cyclo(Cys-D-Ala-Arg-D-Phe(4-Br)-D-Arg-D-Trp-Cys)] (Ac-RC[dA]R[dPhe(4-Br)][dR][dW]C-NH2; disulfide 2-8 (inferred)), for which the Emax in experiment [1] (hMC3R stable cell line) is 1.1%. Also, in experiment [2], the “MC4R selectivity vs MC1R” value was found to be 0.04 and the “MC4R selectivity vs MC3R” value turned out to be 0.06. The Emax in experiment [2] (hMC4R stable cell line) came to 4.4%.

With `CC(=O)N[C@@H](CCCNC(=N)N)C(=O)N[C@H]1CSSC[C@@H](C(N)=O)NC(=O)[C@@H](Cc2c[nH]c3ccccc23)NC(=O)[C@H](CCCNC(=N)N)NC(=O)[C@@H](Cc2ccc(Br)cc2)NC(=O)[C@@H](CCCNC(=N)N)NC(=O)[C@@H](C)NC1=O` [CTX-1250, Arg-cyclo(Cys-D-Ala-D-Arg-D-Phe(4-Br)-Arg-D-Trp-Cys)] (Ac-RC[dA][dR][dPhe(4-Br)]R[dW]C-NH2; disulfide 2-8 (inferred)), the Emax in experiment [1] (hMC3R stable cell line) stood at 10%. In addition, in experiment [2], the “MC4R selectivity vs MC1R” value was determined as 1.06 and the “MC4R selectivity vs MC3R” value amounted to 11. Further, in experiment [2] (hMC4R stable cell line), the Emax is 8.7%.

On to `CC(=O)N[C@@H](CCCNC(=N)N)C(=O)N[C@H]1CSSC[C@@H](C(N)=O)NC(=O)[C@H](Cc2c[nH]c3ccccc23)NC(=O)[C@@H](CCCNC(=N)N)NC(=O)[C@@H](Cc2ccccc2)NC(=O)[C@H](CCCNC(=N)N)NC(=O)[C@@H](C)NC1=O` [CTX-1282, Arg-cyclo(Cys-D-Ala-Arg-D-Phe-D-Arg-Trp-Cys)] (Ac-RC[dA]R[dF][dR]WC-NH2; disulfide 2-8 (inferred)), for which the Emax in experiment [1] (hMC3R stable cell line) stood at 4.2%. In experiment [2], the “MC4R selectivity vs MC1R” value is on record as 0.14 and the “MC4R selectivity vs MC3R” value is 0.38. Besides, the Emax in experiment [2] (hMC4R stable cell line) is 72%.

`CCCC[C@H](NC(=O)[C@H](CCCNC(=N)N)NC(C)=O)C(=O)N[C@H]1CSSC[C@@H](C(N)=O)NC(=O)[C@@H](Cc2c[nH]c3ccccc23)NC(=O)[C@H](CCCNC(=N)N)NC(=O)[C@@H](Cc2ccc(I)cc2)NC(=O)[C@H](Cc2c[nH]cn2)NC1=O` [CTX-1233, Arg-Nle-cyclo(Cys-His-D-Phe(4-I)-Arg-D-Trp-Cys)] (Ac-R[Nle]CH[dPhe(4-I)]R[dW]C-NH2; disulfide 3-8 (inferred)): in experiment [1] (hMC3R stable cell line), the Emax was 22% and the EC50 came out at 4.1 nM. Further, in experiment [2], the “MC4R selectivity vs MC1R” value was 0.26 and the “MC4R selectivity vs MC3R” value stood at 1.88. For the same compound, in experiment [2] (hMC4R stable cell line), the Emax amounted to 16% and the EC50 stood at 2.2 nM.
